Target: T1, PGD2 receptor 2 (DP2) (Homo sapiens, UniProt Q9Y5Y4)
T1 construct: gene PTGDR2
T1 sequence (Q9Y5Y4 1-395): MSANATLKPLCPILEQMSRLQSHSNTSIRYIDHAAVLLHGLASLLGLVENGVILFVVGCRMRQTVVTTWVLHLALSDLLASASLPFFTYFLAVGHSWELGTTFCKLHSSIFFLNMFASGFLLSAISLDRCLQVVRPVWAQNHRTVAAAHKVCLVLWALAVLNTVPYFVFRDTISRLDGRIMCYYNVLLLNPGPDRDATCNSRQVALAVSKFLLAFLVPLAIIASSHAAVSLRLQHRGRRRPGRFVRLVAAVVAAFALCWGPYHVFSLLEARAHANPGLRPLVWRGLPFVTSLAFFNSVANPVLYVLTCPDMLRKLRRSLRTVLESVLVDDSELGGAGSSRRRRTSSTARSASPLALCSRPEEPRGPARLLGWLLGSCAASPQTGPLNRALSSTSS

Cc1c(CC(=O)O)c2cccnc2n1Cc1ccc(S(C)(=O)=O)cc1C(F)(F)F [fevipiprant]
IC50: 3.5 ± 3.6 nM

Reference: publication PMC7610864, “The Roles of Type 2 Cytotoxic T Cells in Inflammation, Tissue Remodeling, and Prostaglandin (PG) D2 Production Are Attenuated by PGD2 Receptor 2 Antagonism” (The Journal of Immunology Author Choice, 2021)
